Measured values taken from the supplement of paper PMC11699113.
Where a name gives a salt, the structure may show the parent alone.

Test system: ED cells (E. derm NBM-6, ATCC CCL-57)
Experiment: cell viability (ATP, CellTiter-Glo) relative to untreated control (fraction of control); higher = less cytotoxic

Cc1ccnc2c1NC(=O)c1cccnc1N2C1CC1 [nevirapine]
cell viability
Settings	0.5 µM	2 µM	5 µM	10 µM	25 µM	50 µM	80 µM	100 µM	200 µM	300 µM
incubation time: 1h	1.05	1.04	1.05	1.05	1.05	1.04	1.05	1.04	1.05	1.04
incubation time: 24h	1.06	1.06	1.07	1.07	1.08	1.09	1.06	1.08	1.05	1.04
incubation time: 72h	1.04	1.05	1.07	1.07	1.06	1.06	1.03	1.02	0.958	0.924
incubation time: 144h	1	1.02	1.02	1.03	1.02	0.989	0.962	0.961	0.886	0.848

Cc1nnc(C(=O)NC(C)(C)c2nc(C(=O)NCc3ccc(F)cc3)c(O)c(=O)n2C)o1 [raltegravir]
cell viability
Settings	0.5 µM	2 µM	5 µM	10 µM	25 µM	50 µM	80 µM	100 µM	200 µM	300 µM
incubation time: 1h	1.07	1.07	1.07	1.08	1.07	1.06	1.05	1.07	1.06	1.06
incubation time: 24h	1.02	1.02	1.02	1.03	1.02	1.01	0.983	0.999	0.982	0.963
incubation time: 72h	1.03	1.05	1.04	1.04	1.04	1.05	1.01	1.02	0.992	0.963
incubation time: 144h	0.994	0.999	1.03	1.03	1.04	1.04	1.03	1.02	0.991	0.955

CC(C)c1nc(CN(C)C(=O)N[C@H](C(=O)N[C@@H](Cc2ccccc2)C[C@H](O)[C@H](Cc2ccccc2)NC(=O)OCc2cncs2)C(C)C)cs1 [ritonavir]
cell viability
Settings	0.5 µM	2 µM	5 µM	10 µM	25 µM	50 µM	80 µM	100 µM	200 µM	300 µM
incubation time: 1h	1.05	1.05	1.05	1.03	1	0.976	0.899	0.879	0.881	0.887
incubation time: 24h	1.03	0.991	0.964	0.922	0.886	0.834	0.426	0.372	0.363	0.363
incubation time: 72h	1.01	0.949	0.868	0.81	0.763	0.686	0.00794	0.00652	0.00418	0.00806
incubation time: 144h	1	0.966	0.901	0.854	0.788	0.703	0.0753	0.0037	0.00476	0.00437

CC(C)(C)NC(=O)[C@@H]1C[C@@H]2CCCC[C@@H]2CN1C[C@@H](O)[C@H](Cc1ccccc1)NC(=O)[C@H](CC(N)=O)NC(=O)c1ccc2ccccc2n1 [saquinavir]
cell viability
Settings	0.25 µM	0.5 µM	2 µM	5 µM	10 µM	20 µM	25 µM	30 µM	50 µM	65 µM
incubation time: 1h	1.03	1.04	1.03	1.04	1.03	1	1.01	1.02	0.958	0.868
incubation time: 24h	0.995	1.01	1	0.992	0.955	0.896	0.872	0.868	0.75	0.583
incubation time: 72h	1.04	1.03	1.01	0.956	0.904	0.798	0.753	0.687	0.306	0.0705
incubation time: 144h	1.02	1.02	1	0.951	0.922	0.808	0.743	0.699	0.201	0.0214

CC(C)OC(=O)OCOP(=O)(CO[C@H](C)Cn1cnc2c(N)ncnc21)OCOC(=O)OC(C)C [tenofovir disoproxil fumarate]
cell viability
Settings	0.5 µM	2 µM	5 µM	10 µM	20 µM	40 µM	50 µM	75 µM	100 µM	150 µM
incubation time: 1h	1.01	1.01	1.02	1.02	1.01	0.999	1	1	0.999	0.988
incubation time: 24h	1.02	1.01	1	0.98	0.95	0.89	0.855	0.795	0.721	0.613
incubation time: 72h	1	0.992	0.947	0.898	0.836	0.75	0.708	0.643	0.643	0.545
incubation time: 144h	1.02	0.993	0.941	0.877	0.833	0.766	0.737	0.662	0.624	0.527

CCC[C@@]1(CCc2ccccc2)CC(O)=C([C@H](CC)c2cccc(NS(=O)(=O)c3ccc(C(F)(F)F)cn3)c2)C(=O)O1 [tipranavir]
cell viability
Settings	0.25 µM	0.5 µM	2 µM	5 µM	10 µM	20 µM	50 µM	100 µM	140 µM	166 µM
incubation time: 1h	1.01	1	0.997	1	1	0.982	0.958	0.789	0.636	0.622
incubation time: 24h	1.01	1	0.993	1	1.03	0.966	0.885	0.718	0.505	0.498
incubation time: 72h	1.04	1.04	1.04	1.02	1.01	0.99	0.822	0.557	0.294	0.212
incubation time: 144h	1	1.01	1.01	1	0.996	0.973	0.772	0.405	0.109	0.0669

Cc1cn([C@H]2C[C@H](N=[N+]=[N-])[C@@H](CO)O2)c(=O)[nH]c1=O [zidovudine]
cell viability
Settings	0.5 µM	2 µM	5 µM	10 µM	25 µM	50 µM	80 µM	100 µM	200 µM	300 µM
incubation time: 1h	1.05	1.06	1.05	1.04	1.02	1.04	1.04	1.04	1.03	1.02
incubation time: 24h	1.06	1.05	1.02	1.02	1.02	1.05	0.981	0.98	1.04	0.958
incubation time: 72h	1.07	1.07	1.09	1.09	1.08	1.09	1.07	1.08	1.09	1.08
incubation time: 144h	1.01	1.03	1.03	1.03	1.04	1.03	1.03	1.04	1.06	1.06
